Results reported in patent US12421242B2, “Substituted tetrahydropyrrolo-pyridinone compounds and their use in treating medical conditions” (Karuna Therapeutics, Inc., priority 2022, dated 2025).

Key:
rM4 receptors = target: T1, rM4 receptors (Rattus norvegicus, UniProt P08485); assay: Rat M4 PAM pERK assay; type: cell-based; conditions: PAM mode
T1 construct: expressed in transfected cells; host or cells: CHO cells
T1 sequence (P08485 1-478): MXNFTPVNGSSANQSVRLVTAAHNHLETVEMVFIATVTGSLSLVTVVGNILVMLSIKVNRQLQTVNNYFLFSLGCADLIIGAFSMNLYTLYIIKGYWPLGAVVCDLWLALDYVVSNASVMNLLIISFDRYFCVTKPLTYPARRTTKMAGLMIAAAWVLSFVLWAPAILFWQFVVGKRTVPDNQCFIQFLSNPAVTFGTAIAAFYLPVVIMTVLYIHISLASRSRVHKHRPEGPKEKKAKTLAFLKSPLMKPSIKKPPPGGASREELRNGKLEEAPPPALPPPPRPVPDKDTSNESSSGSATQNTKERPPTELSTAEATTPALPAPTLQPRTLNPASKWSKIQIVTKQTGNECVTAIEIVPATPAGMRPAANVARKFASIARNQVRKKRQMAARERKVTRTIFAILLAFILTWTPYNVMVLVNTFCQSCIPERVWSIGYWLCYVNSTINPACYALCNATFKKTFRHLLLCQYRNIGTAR
Experimental: (§1) Chinese hamster ovary (CHO) cells expressing either hM4 or rM4 receptors were frozen in assay ready vials (5×10^6 cells/vial) after bulking-up in culture. The day before an assay, vial(s) were thawed and cells seeded in 384 well white proxiplates at 1000/well for hM4 cells and at 2000/well for rM4 cells, in 10 μL of growth media (Hams/F12 with glutamax and 10% FCS) and incubated overnight at 37° C./5% CO2.
(§2) On the following morning, the growth media was removed by ‘flicking out’ over a bin, patting the inverted plate onto tissue, and then replacing with 10 μL of wash media (Hams/F12 with glutamax and 8 mM HEPES, NB: serum free). Then, the wash media was removed in the same way and replaced with 8 μL/well of the serum free media. Plates were then re-incubated for a further 4 hours at 37° C./5% CO2.
(§3) Compounds for testing were solubilized to 10 mM in DMSO and compound addition plates, consisting of ten-point concentration response curves (CRC) in duplicate points (10 μM top concentration, […]), were prepared by acoustic dispensing and the compound management group.
(§4) After the 4-hour incubation in serum free media, a 4 μL aliquot of the 3× compound solution containing an EC20 of acetylcholine (10 nM final concentration) was added to the cell plate using a 384 well plate to plate transfer. Then, the plate lid was replaced, and the cells incubated for 5 mins at 37° C./5% CO2. Following this final incubation, all cellular processes were stopped by the addition of 4 μL/well of lysis and blocking buffer and plates were incubated for 30 minutes at RT on an orbital shaker (gentle setting). Then, a final addition of 4 μL/well of antibody detection mix, containing both the Europium-Cryptate (donor) and d2 (acceptor) tagged detection components, was added followed by a further 2-hour incubation at RT, and then the plate was read using a TR-FRET (time resolved fluorescence resonance energy transfer) based protocol.

hM4 receptors = target: T2, hM4 receptors (Homo sapiens, UniProt P08173); assay: Human M4 PAM pERK assay; type: cell-based; conditions: PAM mode
T2 construct: expressed in transfected cells; host or cells: CHO cells
T2 sequence (P08173 1-479): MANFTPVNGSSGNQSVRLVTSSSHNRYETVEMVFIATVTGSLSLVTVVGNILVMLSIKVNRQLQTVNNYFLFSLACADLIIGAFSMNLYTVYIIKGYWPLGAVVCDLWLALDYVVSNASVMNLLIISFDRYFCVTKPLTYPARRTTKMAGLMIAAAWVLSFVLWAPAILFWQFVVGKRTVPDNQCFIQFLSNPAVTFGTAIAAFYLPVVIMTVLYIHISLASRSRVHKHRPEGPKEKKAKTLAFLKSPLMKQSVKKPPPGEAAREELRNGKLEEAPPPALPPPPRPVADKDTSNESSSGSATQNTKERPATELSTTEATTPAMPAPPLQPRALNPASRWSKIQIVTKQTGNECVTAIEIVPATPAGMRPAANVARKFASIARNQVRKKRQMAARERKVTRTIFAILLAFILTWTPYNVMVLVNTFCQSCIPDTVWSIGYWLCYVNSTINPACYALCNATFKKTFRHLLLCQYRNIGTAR
Experimental: as §1, §2, §3, §4

human M4 receptor = target: T3, human M4 receptor (Homo sapiens, UniProt P08173); assay: M4 GTPγS PAM assay; type: biochemical; conditions: CHO-K1 membranes expressing human M4, with EC20 acetylcholine (40 nM)
T3 construct: expressed in transfected cells
T3 sequence (P08173 1-479): T2 sequence (P08173 1-479)
Experimental: The M4 GTPγS PAM method was used. Membranes were prepared for GTPgS binding assays from CHO-K1 cells stably expressing human M4 receptor. Briefly, cells were grown in 5-layer cell culture flasks. Cells were washed with 50 mL of PBS and then dissociated with 0.05% trypsin. Dissociated cells were then collected by centrifugation at 650×g for 8 minutes at 4° C. Pellets were washed again in PBS by centrifugation and resuspended in 30 mL of 20 mM HEPES, 10 mM EDTA, pH 7.4. After sitting on ice for 30 min, membranes were collected by centrifugation at 50000×g for 15′ at 4° C., resuspended in 30 mL of 20 mM HEPES, 0.1 mM EDTA, pH 7.4 and collected again by centrifugation. Pellets were then washed twice by centrifugation in 30 mL of 20 mM HEPES, pH 7.4, and stored at −80° C. until the day of the assay. On the day of the assay, pellets were thawed on ice and resuspended in 1 mL of 20 mM HEPES, pH 7.4, 10 mM MgCl2, 100 mM NaCl using dounce homogenization. Membrane protein concentration is determined by BCA protein assay (Promega, Madison, WI) according to Promega guidelines.
On the day of the assay, serial dilutions of test PAM compounds were brought up in assay buffer (20 mM HEPES, 10 mM MgCl2, 100 mM NaCl) at 4× final assay concentration. […] of membrane homogenates (containing […] of membrane protein) were prepared in assay buffer supplemented with GDP at 4× final assay concentration (final assay concentration of GDP is 5 uM for M2 and 0.1 uM for M4) and dispensed into 96 well polypropylene, U-bottom Greiner plates. […] of vehicle or test PAM compound at 4× of final assay concentration diluted in the assay buffer were added to membrane and plates are incubated for 10-15 minutes at room temperature with gentle shaking. Then, […] of EC20 acetylcholine in assay buffer at 4× final assay concentration was added to assay plates (EC20 final assay concentrations was 40 nM for human M4).
Plates were then incubated, with shaking, for an additional 10-15 minutes. 25 mL of 0.4 nM ^35S-GTP (Perkin Elmer, Waltham, MA) in assay buffer was added to assay mixtures. The binding reaction is left on the shaker for 1 hour at room temperature. Membranes in assay reactions were then transferred to GF/C filter plates (Unifilter, Perkin Elmer) and washed three times using a FilterMate Harvester (Perkin Elmer) with cold assay buffer containing no GDP. Filter plates were then dried at 40° C. overnight followed by the addition of […] of Beta Plate Scintillation liquid. Plates are top and bottom sealed before being read on TopCount scintillation counter (Perkin Elmer, Waltham, MA).

| SMILES | EC50 (rM4 receptors) [nM] | EC50 (hM4 receptors) [nM] | EC50 (human M4 receptor) [nM] |
| --- | --- | --- | --- |
| Cc1cc(=O)n(C)c2c1C(C)N(C(=O)c1cnc(C3CC3)s1)C2 (single isomer, unassigned) [Compound I-97] | > 2000 | 100 to 500 | > 2000 |
| Cc1cc(=O)n(C)c2c1C(C)N(C(=O)c1ccc3nc(C4CC4)sc3c1)C2 (single isomer, unassigned) [Compound I-98] | > 2000 | > 2000 | > 2000 |
| Cc1cc(=O)n(C)c2c1C(C)N(C(=O)c1ccc3nc(C4CC4)sc3c1)C2 (single isomer, unassigned) [Compound I-99] | 500 to 2000 | 100 to 500 | 500 to 2000 |
| Cc1cc(=O)n(C)c2c1C(C)N(C(=O)c1ccc3nc(C(F)(F)F)sc3c1)C2 (single isomer, unassigned) [Compound I-100] | > 2000 | > 2000 | > 2000 |
| Cc1c2c(n(C)c(=O)c1Cl)C(C)N(C(=O)c1cnn(C(F)(F)F)c1)C2 (single isomer, unassigned) [Compound I-108, 3-Chloro-1,4,7-trimethyl-6-(1-(trifluoromethyl)-1H-pyrazole-4-carbonyl)-1,5,6,7-tetrahydro-2H-pyrrolo[3,4-b]pyridin-2-one] | > 2000 | 500 to 2000 | > 2000 |
| Cc1c2c(n(C)c(=O)c1Cl)CN(C(=O)c1ccn(C)n1)C2 [Compound I-3] | > 2000 | 500 to 2000 | > 2000 |
| Cc1c2c(n(C)c(=O)c1Cl)CN(C(=O)c1cc(C3CC3)on1)C2 [Compound I-6] | > 2000 | 100 to 500 | > 2000 |
| Cc1c2c(n(C)c(=O)c1Cl)CN(C(=O)c1cc(C(F)(F)F)on1)C2 [Compound I-8] | > 2000 | < 100 | > 2000 |
| Cc1ncc(C(=O)N2Cc3c(C)c(Cl)c(=O)n(C)c3C2)s1 [Compound I-9] | 500 to 2000 | < 100 | 500 to 2000 |
| Cc1nc(C(=O)N2Cc3c(C)c(Cl)c(=O)n(C)c3C2)co1 [Compound I-12] | > 2000 | 100 to 500 | > 2000 |
| Cc1c2c(n(C)c(=O)c1Cl)CN(C(=O)c1cn(C(C)C)cn1)C2 [Compound I-14] | > 2000 | 500 to 2000 | > 2000 |
| Cc1c2c(n(C)c(=O)c1Cl)CN(C(=O)c1cnn(C(F)F)c1)C2 [Compound I-17] | 500 to 2000 | < 100 | > 2000 |
| Cc1c2c(n(C)c(=O)c1Cl)CN(C(=O)c1cnc(C)n1C)C2 [Compound I-18] | > 2000 | 500 to 2000 | > 2000 |
| Cc1c2c(n(C)c(=O)c1Cl)CN(C(=O)c1cn(CC(C)C)cn1)C2 [Compound I-19] | > 2000 | 500 to 2000 | > 2000 |
| Cc1c2c(n(C)c(=O)c1Cl)CN(C(=O)c1cnc(C3CC3)s1)C2 [Compound I-21] | 500 to 2000 | < 100 | 100 to 500 |
| Cc1coc(C(=O)N2Cc3c(C)c(Cl)c(=O)n(C)c3C2)n1 [Compound I-22] | > 2000 | 100 to 500 | 500 to 2000 |
| Cc1c2c(n(C)c(=O)c1Cl)CN(C(=O)c1cn3c(n1)CCCC3)C2 [Compound I-24] | > 2000 | 500 to 2000 | > 2000 |
| Cc1c2c(n(C)c(=O)c1Cl)CN(C(=O)c1csc(C(F)(F)F)n1)C2 [Compound I-26] | > 2000 | 100 to 500 | > 2000 |
| Cc1c2c(n(C)c(=O)c1Cl)CN(C(=O)c1cnc(CC3CC3)s1)C2 [Compound I-28] | 500 to 2000 | < 100 | 100 to 500 |
| Cc1c2c(n(C)c(=O)c1Cl)CN(C(=O)c1cnc(C(F)(F)F)s1)C2 [Compound I-29] | 500 to 2000 | < 100 | 500 to 2000 |
| Cc1c2c(n(C)c(=O)c1Cl)CN(C(=O)c1cc3n(n1)CCCC3)C2 [Compound I-32] | > 2000 | 100 to 500 | 500 to 2000 |
| Cc1c2c(n(C)c(=O)c1Cl)CN(C(=O)c1cnc(C(F)F)s1)C2 [Compound I-36] | 500 to 2000 | < 100 | 500 to 2000 |
| Cc1c2c(n(C)c(=O)c1Cl)CN(C(=O)c1cccc(C(F)(F)F)c1)C2 [Compound I-40] | > 2000 | 500 to 2000 | > 2000 |
| Cc1c2c(n(C)c(=O)c1Cl)CN(C(=O)c1ccc(C(F)(F)F)cc1)C2 [Compound I-41] | 500 to 2000 | 100 to 500 | 100 to 500 |
| Cc1c2c(n(C)c(=O)c1Cl)CN(C(=O)c1ccnc(C(F)(F)F)c1)C2 [Compound I-42] | > 2000 | 500 to 2000 | > 2000 |
| Cc1c2c(n(C)c(=O)c1Cl)CN(C(=O)c1ccc(C(F)(F)F)nc1)C2 [Compound I-44] | 500 to 2000 | 100 to 500 | < 100 |
| Cc1c2c(n(C)c(=O)c1Cl)CN(C(=O)c1ccc(C(F)(F)F)cn1)C2 [Compound I-45] | > 2000 | 100 to 500 | > 2000 |
| Cc1c2c(n(C)c(=O)c1Cl)CN(C(=O)c1ccc3nc(C(F)(F)F)sc3c1)C2 [Compound I-49] | 500 to 2000 | 100 to 500 | 500 to 2000 |
| Cc1c2c(n(C)c(=O)c1Cl)CN(C(=O)c1ccc3nc(C4CC4)sc3c1)C2 [Compound I-52, 3-Chloro-6-(2-cyclopropylbenzo[d]thiazole-6-carbonyl)-1,4-dimethyl-1,5,6,7-tetrahydro-2H-pyrrolo[3,4-b]pyridin-2-one] | 100 to 500 | 100 to 500 | 500 to 2000 |
